# Measurements as given in PubChem BioAssay AID504678 (The Scripps Research Institute Molecular Screening Center, 2011).
# Activity calls are given as the source filed them.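 How the source made its calls: active means compound whose IC50 against bacterial viability is at or below 10 µM; inactive means IC50 above 10 µM.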
# Tested on: E. coli V3065 growth, OD600 absorbance
# Assay: E. coli V3065 growth inhibition, dose response, counter-screen for AddAB recombination inhibitor project, absorbance, OD600 (AID 504678)
row,SMILES,IC50
1,Cc1ccc2nc(/C(C#N)=C\c3ccc([N+](=O)[O-])o3)[nH]c2c1,> 119 µM (inactive)
2,O=C(OCC(=O)c1cccs1)c1ccc([N+](=O)[O-])o1,> 119 µM (inactive)
3,CC(=O)Nc1ccc2nc(NC(=O)c3ccc([N+](=O)[O-])o3)sc2c1,> 119 µM (inactive)
4,O=C(Nc1cccc(NC(=O)c2ccccc2Cl)c1)c1ccc([N+](=O)[O-])o1,> 119 µM (inactive)
5,O=C(NCc1cccnc1)c1ccc([N+](=O)[O-])o1,> 39.5 µM (inactive)
6,O=C(Nc1ccc(N2CCOCC2)cc1)c1ccc([N+](=O)[O-])o1,17.3 µM (inactive)
7,Cc1cccnc1NC(=O)c1ccc([N+](=O)[O-])o1,39.5 µM (inactive)
8,C=CCn1c(Sc2ncc([N+](=O)[O-])s2)n[nH]c1=O,20.4 µM (inactive)
9,O=C(Nc1ncccn1)c1ccc([N+](=O)[O-])o1,33 µM (inactive)
10,NC(=O)c1ccsc1NC(=O)COC(=O)c1ccc([N+](=O)[O-])o1,> 119 µM (inactive)
11,N#Cc1c(NC(=O)c2ccc([N+](=O)[O-])o2)sc2c1CCC2,> 119 µM (inactive)
12,CCn1cc(C(=O)O)c(=O)c2cnc(N3CCN(C(=S)Nc4ccccc4C(F)(F)F)CC3)nc21,> 39.5 µM (inactive)
